Consider one compound from patent US9168243B2, “Pharmaceutical compositions comprising 8-substituted dibenzylbutyrolactone lignans” (priority 2010, dated 2015).

Structures are written as SMILES. “Also recorded” adds a separate entry of the source.

In series [1] the test system is phospho-GSK-3β(ser9). Put plainly: Western blot of GSK-3β / phospho-GSK-3β(ser9). Format: cell-based. Conditions: LNCaP +/- 1 nM androgen; 100 μM NTG, 0-8 hours. On the procedure: (§1) Whole cell lysates were prepared by lysing floating and attached cells in Laemmli sample buffer and boiling the samples for 10 minutes. Proteins were separated by SDS-PAGE and transferred on PVDF membrane (Millipore). Western blotting was performed using antibodies against Akt, phospho-Akt (Ser473), GSK-3β, phospho-GSK-3β (Ser9) and phospho-EGF receptor Tyr(1068) (Cell Signalling Technology), Actin (clone AC-40; Sigma-Aldrich), PI3K p85α (clone 4/PI3-Kinase; BD Pharmingen), EGF receptor, Insulin receptor β and IGF-I receptor β (Santa Cruz Biotechnology), and Phospho-tyrosine (clone 4G10; Millipore). HRP-conjugated secondary antibodies were from Southern Biotechnology Associates, Promega, and Amersham Biosciences. The results were visualized using the ECL method (Amersham Biosciences) on x-ray film. The presented Western blot results are representative of at least three independent experiments. […]
(§2) LNCaP cells (+/−1 nM androgen) were treated with 0-100 μM enterolactone (ENL), matairesinol (MAT) or NTG for 1 hour prior to preparation of total cell lysates (FIG. 4A). The relative decrease in pAkt/Akt ratio was quantified from western blot analysis with Akt (60 kDa) and phospho-Akt(ser473) (Mean±SEM; n=4; Student's t-test *p<0.05, **p<0.01). […] The western blot analysis with Akt, phospho-Akt(ser473), GSK-3β and phospho-GSK-3β(ser9) was quantified. […]

The test system of series [2] is LNCaP cells. The experiment in a line: Apoptosis after prolonged incubation with NTG alone. Format: cell-based. Conditions: 0-100 μM NTG, 24-72 h.
Series [3] relates to EGF receptor (EGFR). Put plainly: EGF-induced EGFR tyrosine 1068 phosphorylation, Western blot. Format: cell-based. The settings on record: LNCaP; pretreatment with 100 μM NTG; 20 ng/ml EGF, 5 minutes. On the procedure: The cells were treated with 0-100 μM lignans or solvent control for indicated times. Human recombinant isoleucin-zipper TRAIL (izTRAIL; kindly provided by Professor Henning Walczak) was used at 0-1 μg/ml with an incubation time of 20 hours. Prior to 10 minutes treatment with 10 nM IGF-1 (Millipore) or 10 nM insulin (Sigma) the cells were serum-starved (1% FCS) overnight. EGFR stimulation was performed on serum-starved cells with 20 ng/ml EGF for 5 minutes (a kind gift from Professor Klaus Elenius laboratory).
as §1, with “film.” for “film. The presented Western blot results are representative of at least three independent experiments.”

The subject of series [4] is Akt. Put plainly: Confocal microscopy of Akt localization. Format: cell-based. Conditions: androgen-deprived LNCaP; 100 μM NTG, 2 hours. On the procedure:
After treatments, the cells cultured on coverslips were washed with PBS and fixed with 3% paraformaldehyde for 15 minutes at room temperature. The samples were permeabilized and blocked for one hour in 3% BSA 0.1% Tween in PBS. Akt was labeled with rabbit anti-Akt antibody (Cell signaling) and Alexa 546-conjugated anti-rabbit secondary antibody (Molecular Probes). After washing with PBS, the samples were mounted with DAPI Vectashield (Vector Laboratories) and viewed by Zeiss LSM 510 META laser-scanning confocal microscope (63× oil objective, 543 nm excitation).
as §2, with “**p<0.01). Alternatively, androgen-deprived LNCaP cells were incubated with 100 μM NTG for 2 hours, fixed and labeled with Akt antibody followed by Alexa 546-conjugated secondary antibody. The samples were viewed at LSM 510 confocal microscope (63× oil objective, 543 nm excitation) (FIG. 4B).” for “**p<0.01).”

For series [5] the following is noted: cited from earlier work.
Series [6] has as its system phospho-Akt(ser473). Put plainly: Western blot of Akt / phospho-Akt(ser473). In kind it is cell-based. On the procedure: Whole cell lysates were prepared by lysing floating and attached cells in Laemmli sample buffer and boiling the samples for 10 minutes. Proteins were separated by SDS-PAGE and transferred on PVDF membrane (Millipore). Western blotting was performed using antibodies against Akt, phospho-Akt (Ser473), GSK-3β, phospho-GSK-3β (Ser9) and phospho-EGF receptor Tyr(1068) (Cell Signalling Technology), Actin (clone AC-40; Sigma-Aldrich), PI3K p85α (clone 4/PI3-Kinase; BD Pharmingen), EGF receptor, Insulin receptor β and IGF-I receptor β (Santa Cruz Biotechnology), and Phospho-tyrosine (clone 4G10; Millipore). HRP-conjugated secondary antibodies were from Southern Biotechnology Associates, Promega, and Amersham Biosciences. The results were visualized using the ECL method (Amersham Biosciences) on x-ray film. The presented Western blot results are representative of at least three independent experiments. Densitometric analysis of Western blots was done using scanned films with the MCID M5+ software. The values were normalized to the untreated control sample, which was given the value 1. The histograms in FIG. 4 present a relative decrease in ratio of phosphorylated vs. non-phosphorylated protein compared to control cells.
LNCaP cells (+/−1 nM androgen) were treated with 0-100 μM enterolactone (ENL), matairesinol (MAT) or NTG for 1 hour prior to preparation of total cell lysates (FIG. 4A). The relative decrease in pAkt/Akt ratio was quantified from western blot analysis with Akt (60 kDa) and phospho-Akt(ser473) (Mean±SEM; n=4; Student's t-test *p<0.05, **p<0.01). Alternatively, androgen-deprived LNCaP cells were incubated with 100 μM NTG for 2 hours, fixed and labeled with Akt antibody followed by Alexa 546-conjugated secondary antibody. The samples were viewed at LSM 510 confocal microscope (63× oil objective, 543 nm excitation) (FIG. 4B). To examine the time-dependence of the observed inhibitory effect, LNCaP cells (+/−1 nM androgen) were incubated with 100 μM NTG for 0-8 hours after which total cell lysates were prepared. The western blot analysis with Akt, phospho-Akt(ser473), GSK-3β and phospho-GSK-3β(ser9) was quantified. The histogram presents a relative decrease in pAkt/Akt ratio (FIG. 4C.) or pGSK-3β/GSK-3β ratio (FIG. 4D.) compared to control cells (Mean±SEM; n=3). […]
Importantly, substitution with methyl group at position 8 further increases activity of dibenzylbutyrolactone lignans in sensitization of LNCaP prostate cancer cells to TRAIL-mediated apoptosis (FIG. 8). […] The samples were analyzed by flow cytometry and the fraction of sub-G0/G1 events (nuclear fragmentation) was detected as a measure of apoptotic cell death (mean±SEM; n=4). […]

In series [7] the test system is LNCaP cells. The experiment in a line: Clonogenic assay. The settings on record: 11 days. In kind it is cell-based. On the procedure:
Five hundred LNCaP cells were plated in 1 ml of culture medium and let to adhere prior to addition of the indicated treatments. After 11 days of incubation, cell colonies were fixed with glutaraldehyde (6.0% v/v), stained with crystal violet (0.5% w/v) and imaged using a digital camera.
To investigate the effects of NTG alone and in combination with TRAIL on colony formation ability, the LNCaP cells were plated in low confluency and treated for 11 days.

Series [8] has as its system DMBA-induced mammary tumors. The settings on record: cited from earlier work.
The mark [9] stands for this setting: LNCaP +/- androgen, 100 μM NTG 2 hours, then medium change.

As to `COc1cc(CC2COC(=O)C2(O)Cc2ccc(O)c(OC)c2)ccc1O` (stereo not shown) [NTG, Nortrachelogenin], the “GSK-3β phosphorylation (pGSK-3β/GSK-3β ratio)” value in series [1] is “downregulates Akt and GSK-3β phosphorylation”. The “induction of apoptosis by NTG alone” value in series [2] is on record as “did not induce apoptosis”. In addition, the “EGF-induced tyrosine phosphorylation of EGFR” value in series [3] was “attenuated the EGF-induced tyrosine phosphorylation of EGFR”. For the same compound, the “cellular localization of Akt” value in series [4] was “increases cytoplasmic localization of Akt”. Further, the “conversion into the mammalian lignans” value in series [5] (in vivo) is listed as “not known to be converted into the mammalian lignans, ENL or END”. The absorption and excretion entry in series [5] (urine) is “absorbed and excreted in urine as such”. Also, the “Akt phosphorylation (pAkt/Akt ratio)” value in series [6] (LNCaP +/- 1 nM androgen, 0-100 μM lignan, 1 hour (NTG also 100 μM, 0-8 hours)) is “downregulates Akt and GSK-3β phosphorylation; also recorded: inhibit Akt phosphorylation yet more efficiently than ENL or MAT”. Also, in series [6] (setting [9]), the “time after washout at which Akt activity starts returning” value amounted to 10 min and the “time after washout to total recovery of Akt activity” value was not above 1 h. In addition, in series [7] (10 ng/ml TRAIL or 40 μM NTG alone), the “colony formation ability, single agent” value is recorded as “clearly inhibited the growth of the plated cells”. Besides, the “colony formation ability, NTG and TRAIL in combination” value in series [7] (40 μM NTG and 10 ng/ml TRAIL) is listed as “significant death of the cells that were seeded”. In series [8] (during promotion and early progression), the “growth of DMBA-induced mammary tumors” value is recorded as “did not inhibit the growth of DMBA-induced mammary tumors”. The endocrine-modulatory effects entry in series [8] (long-term experiments) is “weak endocrine-modulatory effects”.
